Test results: US10322111B2, “Chemokine receptor binding heterocyclic compounds with enhanced efficacy” (Genzyme Corporation, priority 2001, dated 2019)
Like-named read-outs stand apart in the source and are kept apart here.

Tests used:
CFU-GM progenitor cells = conditions: 80 μg/kg s.c.; for % CHG, CFU-GM, agar culture / mean fold change compared to T 0, CFU-GM, agar culture, MEAN: all five donors

c1cc(CN2CCCNCCNCCCNCC2)ccc1CN1CCCNCCNCCCNCC1 [AMD3100, 1,1′-[1,4-phenylene-bis(methylene)]-bis-1,4,8,11-tetraazacyclotetradecane]
white blood cells (white blood cells; volunteer P2, 4 Hr after 80 μg/kg s.c.): 18.00 ×10^3 WBC's | white blood cells (white blood cells; volunteer P2, 6 Hr after 80 μg/kg s.c.): 19.2 ×10^3 WBC's | white blood cells (white blood cells; volunteer P2, 9 Hr after 80 μg/kg s.c.): 19.6 ×10^3 WBC's | white blood cells (white blood cells; volunteer P2, 30 Min after 80 μg/kg s.c.): 6.53 ×10^3 WBC's | white blood cells (white blood cells; volunteer P2, Day 2 after 80 μg/kg s.c.): 8.03 ×10^3 WBC's | white blood cells (white blood cells; volunteer P3, 1 Hr after 80 μg/kg s.c.): 9.28 ×10^3 WBC's | white blood cells (white blood cells; volunteer P3, 4 Hr after 80 μg/kg s.c.): 18.10 ×10^3 WBC's | white blood cells (white blood cells; volunteer P3, 6 Hr after 80 μg/kg s.c.): 17.9 ×10^3 WBC's | white blood cells (white blood cells; volunteer P3, 9 Hr after 80 μg/kg s.c.): 18.4 ×10^3 WBC's | white blood cells (white blood cells; volunteer P3, 30 Min after 80 μg/kg s.c.): 7.14 ×10^3 WBC's | white blood cells (white blood cells; volunteer P3, Day 2 after 80 μg/kg s.c.): 4.98 ×10^3 WBC's | white blood cells (white blood cells; volunteer P4, 1 Hr after 80 μg/kg s.c.): 7.38 ×10^3 WBC's | white blood cells (white blood cells; volunteer P4, 2 Hr after 80 μg/kg s.c.): 12.4 ×10^3 WBC's | white blood cells (white blood cells; volunteer P4, 4 Hr after 80 μg/kg s.c.): 14.6 ×10^3 WBC's | white blood cells (white blood cells; volunteer P4, 6 Hr after 80 μg/kg s.c.): 15.8 ×10^3 WBC's | white blood cells (white blood cells; volunteer P4, 9 Hr after 80 μg/kg s.c.): 13.9 ×10^3 WBC's | white blood cells (white blood cells; volunteer P4, 30 Min after 80 μg/kg s.c.): 4.37 ×10^3 WBC's | white blood cells (white blood cells; volunteer P4, Day 2 after 80 μg/kg s.c.): 4.98 ×10^3 WBC's | white blood cells (white blood cells; volunteer P5, 1 Hr after 80 μg/kg s.c.): 8.43 ×10^3 WBC's | white blood cells (white blood cells; volunteer P5, 4 Hr after 80 μg/kg s.c.): 16.90 ×10^3 WBC's | white blood cells (white blood cells; volunteer P5, 6 Hr after 80 μg/kg s.c.): 19.3 ×10^3 WBC's | white blood cells (white blood cells; volunteer P5, 9 Hr after 80 μg/kg s.c.): 19.00 ×10^3 WBC's | white blood cells (white blood cells; volunteer P5, 30 Min after 80 μg/kg s.c.): 6.08 ×10^3 WBC's | white blood cells (white blood cells; volunteer P5, Day 2 after 80 μg/kg s.c.): 4.57 ×10^3 WBC's | Absolute # of Progenitors per ML, CFU-GM, AGAR Culture (CFU-GM progenitor cells; P1, T = 1 h after injection): 710 per ML | fold change from T=0, CFU-GM, agar culture (CFU-GM progenitor cells; P1, T = 1 h after injection): 3.05 fold | Absolute # of Progenitors per ML, CFU-GM, AGAR Culture (CFU-GM progenitor cells; P1, T = 3 h after injection): 2070 per ML | fold change from T=0, CFU-GM, agar culture (CFU-GM progenitor cells; P1, T = 3 h after injection): 8.88 fold | Absolute # of Progenitors per ML, CFU-GM, AGAR Culture (CFU-GM progenitor cells; P1, T = 6 h after injection): 4142 per ML | fold change from T=0, CFU-GM, agar culture (CFU-GM progenitor cells; P1, T = 6 h after injection): 17.77 fold | Absolute # of Progenitors per ML, CFU-GM, AGAR Culture (CFU-GM progenitor cells; P2, T = 1 h after injection): 376 per ML | fold change from T=0, CFU-GM, agar culture (CFU-GM progenitor cells; P2, T = 1 h after injection): 3.74 fold | Absolute # of Progenitors per ML, CFU-GM, AGAR Culture (CFU-GM progenitor cells; P2, T = 3 h after injection): 953 per ML | fold change from T=0, CFU-GM, agar culture (CFU-GM progenitor cells; P2, T = 3 h after injection): 9.49 fold | Absolute # of Progenitors per ML, CFU-GM, AGAR Culture (CFU-GM progenitor cells; P2, T = 6 h after injection): 2409 per ML | fold change from T=0, CFU-GM, agar culture (CFU-GM progenitor cells; P2, T = 6 h after injection): 24.01 fold | Absolute # of Progenitors per ML, CFU-GM, AGAR Culture (CFU-GM progenitor cells; P2, T = 9 h after injection): 1032 per ML | fold change from T=0, CFU-GM, agar culture (CFU-GM progenitor cells; P2, T = 9 h after injection): 10.28 fold | Absolute # of Progenitors per ML, CFU-GM, AGAR Culture (CFU-GM progenitor cells; P2, T = 24 h after injection): 371 per ML | fold change from T=0, CFU-GM, agar culture (CFU-GM progenitor cells; P2, T = 24 h after injection): 3.69 fold | Absolute # of Progenitors per ML, CFU-GM, AGAR Culture (CFU-GM progenitor cells; P3, T = 1 h after injection): 234 per ML | fold change from T=0, CFU-GM, agar culture (CFU-GM progenitor cells; P3, T = 1 h after injection): 1.67 fold | Absolute # of Progenitors per ML, CFU-GM, AGAR Culture (CFU-GM progenitor cells; P3, T = 3 h after injection): 1049 per ML | fold change from T=0, CFU-GM, agar culture (CFU-GM progenitor cells; P3, T = 3 h after injection): 7.47 fold | Absolute # of Progenitors per ML, CFU-GM, AGAR Culture (CFU-GM progenitor cells; P3, T = 6 h after injection): 1972 per ML | fold change from T=0, CFU-GM, agar culture (CFU-GM progenitor cells; P3, T = 6 h after injection): 14.04 fold | Absolute # of Progenitors per ML, CFU-GM, AGAR Culture (CFU-GM progenitor cells; P3, T = 9 h after injection): 1085 per ML | fold change from T=0, CFU-GM, agar culture (CFU-GM progenitor cells; P3, T = 9 h after injection): 7.72 fold | Absolute # of Progenitors per ML, CFU-GM, AGAR Culture (CFU-GM progenitor cells; P3, T = 24 h after injection): 159 per ML | fold change from T=0, CFU-GM, agar culture (CFU-GM progenitor cells; P3, T = 24 h after injection): 1.13 fold | Absolute # of Progenitors per ML, CFU-GM, AGAR Culture (CFU-GM progenitor cells; P4, T = 1 h after injection): 336 per ML | fold change from T=0, CFU-GM, agar culture (CFU-GM progenitor cells; P4, T = 1 h after injection): 2.71 fold | Absolute # of Progenitors per ML, CFU-GM, AGAR Culture (CFU-GM progenitor cells; P4, T = 3 h after injection): 1299 per ML | fold change from T=0, CFU-GM, agar culture (CFU-GM progenitor cells; P4, T = 3 h after injection): 10.46 fold | Absolute # of Progenitors per ML, CFU-GM, AGAR Culture (CFU-GM progenitor cells; P4, T = 6 h after injection): 1623 per ML | fold change from T=0, CFU-GM, agar culture (CFU-GM progenitor cells; P4, T = 6 h after injection): 13.07 fold | Absolute # of Progenitors per ML, CFU-GM, AGAR Culture (CFU-GM progenitor cells; P4, T = 9 h after injection): 1268 per ML | fold change from T=0, CFU-GM, agar culture (CFU-GM progenitor cells; P4, T = 9 h after injection): 10.22 fold | Absolute # of Progenitors per ML, CFU-GM, AGAR Culture (CFU-GM progenitor cells; P4, T = 24 h after injection): 162 per ML | fold change from T=0, CFU-GM, agar culture (CFU-GM progenitor cells; P4, T = 24 h after injection): 1.30 fold | Absolute # of Progenitors per ML, CFU-GM, AGAR Culture (CFU-GM progenitor cells; P5, T = 1 h after injection): 298 per ML | Absolute # of Progenitors per ML, CFU-GM, AGAR Culture (CFU-GM progenitor cells; P5, T = 3 h after injection): 664 per ML | Absolute # of Progenitors per ML, CFU-GM, AGAR Culture (CFU-GM progenitor cells; P5, T = 6 h after injection): 2153 per ML | Absolute # of Progenitors per ML, CFU-GM, AGAR Culture (CFU-GM progenitor cells; P5, T = 9 h after injection): 1326 per ML | Absolute # of Progenitors per ML, CFU-GM, AGAR Culture (CFU-GM progenitor cells; P5, T = 24 h after injection): 229 per ML | fold change from T=0, CFU-GM, agar culture (CFU-GM progenitor cells; P6, T = 1 h after injection): 2.87 fold | fold change from T=0, CFU-GM, agar culture (CFU-GM progenitor cells; P6, T = 3 h after injection): 6.40 fold | fold change from T=0, CFU-GM, agar culture (CFU-GM progenitor cells; P6, T = 6 h after injection): 20.75 fold | fold change from T=0, CFU-GM, agar culture (CFU-GM progenitor cells; P6, T = 9 h after injection): 12.78 fold | fold change from T=0, CFU-GM, agar culture (CFU-GM progenitor cells; P6, T = 24 h after injection): 2.20 fold | % CHG, CFU-GM, agar culture (CFU-GM progenitor cells; T = 1 h after injection): 180.8% | mean fold change compared to T 0, CFU-GM, agar culture, MEAN (CFU-GM progenitor cells; T = 1 h after injection): 2.81 fold | % CHG, CFU-GM, agar culture (CFU-GM progenitor cells; T = 3 h after injection): 754.1% | mean fold change compared to T 0, CFU-GM, agar culture, MEAN (CFU-GM progenitor cells; T = 3 h after injection): 8.54 fold | % CHG, CFU-GM, agar culture (CFU-GM progenitor cells; T = 6 h after injection): 1692.8% | mean fold change compared to T 0, CFU-GM, agar culture, MEAN (CFU-GM progenitor cells; T = 6 h after injection): 17.93 fold | % CHG, CFU-GM, agar culture (CFU-GM progenitor cells; T = 9 h after injection): 924.9% | mean fold change compared to T 0, CFU-GM, agar culture, MEAN (CFU-GM progenitor cells; T = 9 h after injection): 10.25 fold | % CHG, CFU-GM, agar culture (CFU-GM progenitor cells; T = 24 h after injection): 108.3% | mean fold change compared to T 0, CFU-GM, agar culture, MEAN (CFU-GM progenitor cells; T = 24 h after injection): 2.08 fold
